{
  "source": "patent US20250230193A1",
  "about": "“CYCLIC COMPOUND HAVING SELECTIVE KRAS INHIBITORY EFFECT ON HRAS AND NRAS” (CHUGAI SEIYAKU KABUSHIKI KAISHA, priority 2022, published 2025)",
  "key": {"[1]": {"target": "GDP-bound NRAS wild-type protein (Homo sapiens, UniProt P01111)", "sequence (P01111 whole entry)": "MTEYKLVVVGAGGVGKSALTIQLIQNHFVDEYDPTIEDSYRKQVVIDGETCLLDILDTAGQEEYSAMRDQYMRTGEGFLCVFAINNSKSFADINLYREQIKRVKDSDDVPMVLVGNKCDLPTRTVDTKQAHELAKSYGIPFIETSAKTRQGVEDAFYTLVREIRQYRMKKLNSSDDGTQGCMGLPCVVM", "experiment": "Binding to NRAS by surface plasmon resonance (SPR), Single Cycle Kinetics", "settings": "for NRAS/KRAS (ratio of KD value with respect to NRAS to KD value with respect to KRAS) / NRAS/KRAS (ratio of KD value for NRAS to KD value for KRAS): GDP-bound NRAS wild-type vs GDP-bound KRAS wild-type"}, "[2]": {"target": "GDP-bound HRAS wild-type protein (Homo sapiens, UniProt P01112)", "sequence (P01112 whole entry)": "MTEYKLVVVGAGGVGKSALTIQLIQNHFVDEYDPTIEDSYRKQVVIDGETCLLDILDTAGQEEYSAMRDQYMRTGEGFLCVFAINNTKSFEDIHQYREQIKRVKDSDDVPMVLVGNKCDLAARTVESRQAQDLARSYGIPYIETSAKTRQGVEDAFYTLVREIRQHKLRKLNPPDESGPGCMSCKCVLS", "experiment": "Binding to HRAS by surface plasmon resonance (SPR), Single Cycle Kinetics", "settings": "for HRAS/KRAS (ratio of KD value with respect to HRAS to KD value with respect to KRAS) / HRAS/KRAS (ratio of KD value for HRAS to KD value for KRAS): GDP-bound HRAS wild-type vs GDP-bound KRAS wild-type"}},
  "note": "Where a SMILES comes first, the peptide text is derived from it. Bridges are numbered along the chain shown (N, C = ends). [ ]: non-standard residue; d: D form. The star is where a group is joined. hPhe(3-Cl-4-CF3) = N[C@@H](CCc1ccc(C(F)(F)F)c(Cl)c1)C(=O)O; NPrPhe(4-CF3) = CCCN[C@@H](Cc1ccc(C(F)(F)F)cc1)C(=O)O; Abu(4,4,4-F3) = N[C@@H](CC(F)(F)F)C(=O)O; NMeGly(cPent) = CN[C@H](C(=O)O)C1CCCC1; NMeD = CN[C@@H](CC(=O)O)C(=O)O; NMeL = CN[C@@H](CC(C)C)C(=O)O; Azetidin(1-yl) = C1CN(*)C1; Morpholide = C1CN(*)CCO1; NMeA = CN[C@@H](C)C(=O)O; Ac5c = NC1(C(=O)O)CCCC1; Aze = O=C(O)[C@@H]1CCN1; NEtG = CCNCC(=O)O; Sar = CNCC(=O)O",
  "data": [
    {"molecule": "CCCN1C(=O)[C@@H]2CCN2C(=O)[C@H](C)N(C)C(=O)[C@H]([C@@H](C)CC)NC(=O)[C@H](CC(C)C)N(C)C(=O)C[C@@H](C(=O)N2CCOCC2)N(C)C(=O)[C@H](C2CCCC2)N(C)C(=O)C2(CCCC2)NC(=O)CN(C)C(=O)[C@H](CCc2ccc(C(F)(F)F)c(Cl)c2)NC(=O)CN(C)C(=O)[C@@H]1Cc1ccc(C(F)(F)F)cc1", "note": "[PP0287] ([NMeL]I[NMeA][Aze][NPrPhe(4-CF3)][Sar][hPhe(3-Cl-4-CF3)][Sar][Ac5c][NMeGly(cPent)][NMeD]-Morpholide; lactam N-11)", "values": [
      {"measurement": "NRAS/KRAS (ratio of KD for GDP-bound NRAS wild-type to KD for KRAS)", "setting": "[1]; KD ratio NRAS/KRAS, SPR", "value": "C (A compound having a KD ratio of 0.1 or more and less than 3 is denoted as C)"},
      {"measurement": "HRAS/KRAS (ratio of KD for GDP-bound HRAS wild-type to KD for KRAS)", "setting": "[2]; KD ratio HRAS/KRAS, SPR", "value": "C (A compound having a KD ratio of 0.1 or more and less than 3 is denoted as C)"}
    ]},
    {"molecule": "CCO[C@@H]1C[C@H]2C(=O)NC3(CCC3)C(=O)N(C)[C@@H](C3CCCC3)C(=O)N(C)[C@H](C(=O)N(C)C)CC(=O)N(C)[C@@H](Cc3ccc(F)cc3)C(=O)N[C@@H]([C@@H](C)CC)C(=O)N(C)CC(=O)N(C)[C@H]3CCCCCN(C3=O)[C@@H](Cc3ccc(C(F)(F)F)cc3)C(=O)N(C)CC(=O)N[C@@H](CCc3cc(F)c(C(F)(F)F)c(F)c3)C(=O)N2C1", "note": "[PP0936]", "values": [
      {"measurement": "NRAS/KRAS (ratio of KD value with respect to NRAS to KD value with respect to KRAS)", "setting": "[1]; KD ratio, SPR", "value": "B (a compound having 3 or more and less than 10 is denoted as B)"},
      {"measurement": "HRAS/KRAS (ratio of KD value with respect to HRAS to KD value with respect to KRAS)", "setting": "[2]; KD ratio, SPR", "value": "B (a compound having 3 or more and less than 10 is denoted as B)"}
    ]},
    {"molecule": "C=CC[C@H]1C(=O)N[C@@H]([C@@H](C)CC)C(=O)N(C)CC(=O)N(C)[C@H]2CCCCN(C2=O)[C@@H](Cc2ccc(C(F)(F)F)cc2)C(=O)N(C)CC(=O)N[C@@H](CCc2cc(F)c(C(F)(F)F)c(F)c2)C(=O)N2C[C@H](OCC)C[C@H]2C(=O)N[C@](C)(CC=C)C(=O)N(C)[C@@H](C2CCCC2)C(=O)N(C)[C@H](C(=O)N2CCOCC2)CC(=O)N1C", "note": "[PP0874]", "values": [
      {"measurement": "NRAS/KRAS (ratio of KD value with respect to NRAS to KD value with respect to KRAS)", "setting": "[1]; KD ratio, SPR", "value": "C (A compound having a KD ratio of 0.1 or more and less than 3 is denoted as C)"},
      {"measurement": "HRAS/KRAS (ratio of KD value with respect to HRAS to KD value with respect to KRAS)", "setting": "[2]; KD ratio, SPR", "value": "B (a compound having 3 or more and less than 10 is denoted as B)"}
    ]},
    {"molecule": "CCC[C@H]1C(=O)N[C@@H]([C@@H](C)CC)C(=O)N(C)CC(=O)N(C)[C@H]2C/C=C\\CCN(C2=O)[C@@H](Cc2ccc(C(F)(F)F)cc2)C(=O)N(C)CC(=O)N[C@@H](CCc2ccc(C(F)(F)F)c(Cl)c2)C(=O)N2CCOC[C@H]2C(=O)NC2(CC(C)(C)C2)C(=O)N(C)[C@@H](C(CC)CC)C(=O)N(C)[C@H](C(=O)N(C)C)CC(=O)N1C", "note": "[PP2929]", "values": [
      {"measurement": "NRAS/KRAS (ratio of KD value with respect to GDP-bound NRAS wild-type protein to KD value with respect to KRAS)", "setting": "[1]; KD ratio NRAS/KRAS, class symbols", "value": "AA (a compound having 20 or more is denoted as AA)"},
      {"measurement": "HRAS/KRAS (ratio of KD value with respect to GDP-bound HRAS wild-type protein to KD value with respect to KRAS)", "setting": "[2]; KD ratio HRAS/KRAS, class symbols", "value": "A (a compound having 10 or more and less than 20 is denoted as A)"}
    ]},
    {"molecule": "CCCN1C(=O)[C@@H]2CCN2C(=O)[C@H](C)N(C)C(=O)[C@H]([C@@H](C)CC)NC(=O)[C@H](CC(C)C)N(C)C(=O)C[C@@H](C(=O)N2CCC2)N(C)C(=O)[C@H](C2CCCC2)N(C)C(=O)C2(CCCC2)NC(=O)[C@@H]2CCCN2C(=O)[C@H](CCc2ccc(C(F)(F)F)c(Cl)c2)NC(=O)CN(C)C(=O)[C@@H]1Cc1ccc(C(F)(F)F)cc1", "note": "[PP0181] ([NMeL]I[NMeA][Aze][NPrPhe(4-CF3)][Sar][hPhe(3-Cl-4-CF3)]P[Ac5c][NMeGly(cPent)][NMeD]-{Azetidin(1-yl)}; lactam N-11)", "values": [
      {"measurement": "NRAS/KRAS (ratio of KD for GDP-bound NRAS wild-type to KD for KRAS)", "setting": "[1]; KD ratio NRAS/KRAS, SPR", "value": "C (A compound having a KD ratio of 0.1 or more and less than 3 is denoted as C)"},
      {"measurement": "HRAS/KRAS (ratio of KD for GDP-bound HRAS wild-type to KD for KRAS)", "setting": "[2]; KD ratio HRAS/KRAS, SPR", "value": "B (a compound having 3 or more and less than 10 is denoted as B)"}
    ]},
    {"molecule": "CCCN1C(=O)CN(C)C(=O)CN(CC)C(=O)[C@H](CC(F)(F)F)NC(=O)[C@H](CC(C)C)N(C)C(=O)C[C@@H](C(=O)N2CCOCC2)N(C)C(=O)[C@H](C2CCCC2)N(C)C(=O)C2(CCCC2)NC(=O)[C@@H]2CCCN2C(=O)[C@H](CCc2ccc(C(F)(F)F)c(Cl)c2)NC(=O)CN(C)C(=O)[C@@H]1Cc1ccc(C(F)(F)F)cc1", "note": "[PP0291] ([NMeL][Abu(4,4,4-F3)][NEtG][Sar][NPrPhe(4-CF3)][Sar][hPhe(3-Cl-4-CF3)]P[Ac5c][NMeGly(cPent)][NMeD]-Morpholide; lactam N-11)", "values": [
      {"measurement": "NRAS/KRAS (ratio of KD for GDP-bound NRAS wild-type to KD for KRAS)", "setting": "[1]; KD ratio NRAS/KRAS, SPR", "value": "B (a compound having 3 or more and less than 10 is denoted as B)"},
      {"measurement": "HRAS/KRAS (ratio of KD for GDP-bound HRAS wild-type to KD for KRAS)", "setting": "[2]; KD ratio HRAS/KRAS, SPR", "value": "B (a compound having 3 or more and less than 10 is denoted as B)"}
    ]},
    {"molecule": "CCO[C@@H]1C[C@H]2C(=O)NC3(CCC3)C(=O)N(C)[C@@H](C3CCCC3)C(=O)N(C)[C@H](C(=O)N(CC)CC)CC(=O)N(C)[C@@H](CC)C(=O)N[C@@H]([C@@H](C)CC)C(=O)N(C)CC(=O)N(C)[C@H]3C/C=C\\CCN(C3=O)[C@@H](Cc3ccc(C(F)(F)F)cc3)C(=O)N(C)CC(=O)N[C@@H](CCc3cc(F)c(C(F)(F)F)c(F)c3)C(=O)N2C1", "note": "[PP1305]", "values": [
      {"measurement": "NRAS/KRAS (ratio of KD value for GDP-bound NRAS wild-type protein to KD value for KRAS)", "setting": "[1]; SPR, KD ratio class", "value": "AA (a compound having 20 or more is denoted as AA)"},
      {"measurement": "HRAS/KRAS (ratio of KD value for GDP-bound HRAS wild-type protein to KD value for KRAS)", "setting": "[2]; SPR, KD ratio class", "value": "A (a compound having 10 or more and less than 20 is denoted as A)"}
    ]},
    {"molecule": "CCO[C@@H]1C[C@H]2C(=O)NC3(CC(C)(C)C3)C(=O)N(CC)[C@@H](C3CCCC3)C(=O)N(C)[C@H](C(=O)N(C)C)CC(=O)N(C)[C@@H](CC)C(=O)N[C@@H]([C@@H](C)CC)C(=O)N(C)CC(=O)N(C)[C@H]3C/C=C\\CCN(C3=O)[C@@H](Cc3ccc(C(F)(F)F)cc3)C(=O)N(C)CC(=O)N[C@@H](CCc3cc(F)c(C(F)(F)F)c(F)c3)C(=O)N2C1", "note": "[PP1913]", "values": [
      {"measurement": "NRAS/KRAS (ratio of KD value for NRAS to KD value for KRAS)", "setting": "[1]; KD ratio, SPR", "value": "A (a compound having 10 or more and less than 20 is denoted as A)"},
      {"measurement": "HRAS/KRAS (ratio of KD value for HRAS to KD value for KRAS)", "setting": "[2]; KD ratio, SPR", "value": "A (a compound having 10 or more and less than 20 is denoted as A)"}
    ]},
    {"molecule": "CC[C@H](C)[C@@H]1NC(=O)[C@H](C2CCC2)N(C)C(=O)C[C@@H](C(=O)N(C)CC)N(C)C(=O)[C@H](C2CCCC2)N(C)C(=O)C2(CC(C)(C)C2)NC(=O)[C@@H]2C[C@H](C)CN2C(=O)[C@H](CCc2ccc(C(F)(F)F)c(OC)c2)NC(=O)CN(C)C(=O)[C@H](Cc2ccc(C(F)(F)F)cc2)N2CC/C=C\\C[C@@H](C2=O)N(C)C(=O)CN(C)C1=O", "note": "[PP2009]", "values": [
      {"measurement": "NRAS/KRAS (ratio of KD value for NRAS to KD value for KRAS)", "setting": "[1]; KD ratio, SPR", "value": "A (a compound having 10 or more and less than 20 is denoted as A)"},
      {"measurement": "HRAS/KRAS (ratio of KD value for HRAS to KD value for KRAS)", "setting": "[2]; KD ratio, SPR", "value": "A (a compound having 10 or more and less than 20 is denoted as A)"}
    ]},
    {"molecule": "CCC[C@H]1C(=O)N[C@@H]([C@@H](C)CC)C(=O)N(C)CC(=O)N(C)[C@H]2C/C=C\\CCN(C2=O)[C@@H](Cc2ccc(C)cc2)C(=O)N(C)CC(=O)N[C@@H](CCc2ccc(C(F)(F)F)c(Cl)c2)C(=O)N2C[C@H](OCC)C[C@H]2C(=O)NC2(CC(C)(C)C2)C(=O)N(C)[C@@H](C(CC)CC)C(=O)N(C)[C@H](C(=O)N(C)C)CC(=O)N1C", "note": "[PP2146]", "values": [
      {"measurement": "NRAS/KRAS (ratio of KD value with respect to NRAS to KD value with respect to KRAS)", "setting": "[1]; SPR", "value": "A (a compound having 10 or more and less than 20 is denoted as A)"},
      {"measurement": "HRAS/KRAS (ratio of KD value with respect to HRAS to KD value with respect to KRAS)", "setting": "[2]; SPR", "value": "A (a compound having 10 or more and less than 20 is denoted as A)"}
    ]},
    {"molecule": "CCO[C@@H]1C[C@H]2C(=O)NC3(CC(C)(C)C3)C(=O)N(C)[C@@H](C3CCCC3)C(=O)N(C)[C@H](C(=O)N3CCCCC3)CC(=O)N(C)[C@@H](CC)C(=O)N[C@@H]([C@@H](C)CC)C(=O)N(C)CC(=O)N(C)[C@H]3C/C=C\\CCN(C3=O)[C@@H](Cc3ccc(C(F)(F)F)cc3)C(=O)N(C)CC(=O)N[C@@H](CCc3cc(F)c(C(F)(F)F)c(F)c3)C(=O)N2C1", "note": "[PP1945]", "values": [
      {"measurement": "NRAS/KRAS (ratio of KD value for NRAS to KD value for KRAS)", "setting": "[1]; KD ratio, SPR", "value": "AA (a compound having 20 or more is denoted as AA)"},
      {"measurement": "HRAS/KRAS (ratio of KD value for HRAS to KD value for KRAS)", "setting": "[2]; KD ratio, SPR", "value": "A (a compound having 10 or more and less than 20 is denoted as A)"}
    ]}
  ]
}
